In article PMC12040169 (PLOS Biology, 2025):

Experiment: in vitro
Details: human, hela cells, % viability

Row | SMILES | viability at 28.5 h, 10 µM [%] | viability at 28.5 h, 10 µM (bulk resorufin, single well) [%]
1 | CC(C)CC(NC(=O)c1ccccc1)C(=O)OCC(=O)Nc1nc2ccccc2s1 (centres unmarked) [CBK085134] | 92.5 | 
2 | O=C(NCc1ccccc1)c1ccccc1NC(=O)C1CCCCC1C(=O)O (centres unmarked) [CBK269283] | 92 | 
3 | O=C(c1ccccc1)N1CCN(C(=O)c2ccco2)CC1 [CBK068314] | 96.6 | 
4 | Cc1c(-c2csc(CC#N)n2)sc2ccccc12 [CBK020828] | 65.6 | 
5 | O=C(O)CSc1nc(O)c2c(-c3ccccc3)csc2n1 [CBK268067] | 107 | 
6 | O=C(NCc1cccnc1)N1CCN(c2ccccc2)CC1 [CBK155178] | 98.2 | 
7 | CN1CCC(=NNC(=O)c2cc(O)c(O)c(O)c2)CC1 [CBK262660] | 78.6 | 
8 | Cc1ccc(C2CCCN2C(=O)c2ccc(=O)n(CC(=O)NC3CCCCC3)c2)cc1C (centres unmarked) [CBK285982] | 97.4 | 
9 | CCCn1nnnc1NCc1cccc(Cl)c1 [CBK288130] | 98.7 | 
10 | COCCNc1nc(-c2ccccc2OC)ccc1C(=O)N1CCN(C)CC1 [CBK105950] | 88.7 | 
11 | Oc1c(CN2CCOCC2)ccc(CN2CCOCC2)c1O [CBK269979] | 100 | 
12 | CC1CCc2n[nH]c(C(=O)N(C)CCc3ccncc3)c2C1 (centres unmarked) [CBK283195] | 99.5 | 
13 | Cc1ccc(SCCCCn2cnc3ccccc32)cc1 [CBK267801G] | 103 | 
14 | O=C(c1ccccn1)c1ccccn1 [CBK010601] | 89 | 
15 | COc1ccccc1CN1CCC(Cc2ccccc2-c2ccccc2)(C(N)=O)CC1 [CBK285719] | 101 | 
16 | O=C(CN1CCN(C(c2ccccc2)c2ccccc2)CC1)Nc1c2c(nc3ccccc13)CCC2 [CBK278299G] | 92.7 | 
17 | COc1ccc(Nc2nc(-c3cc(C(C)C)ccc3OC)cn3ccnc23)cn1 [CBK066354] | 84.3 | 
18 | CCOc1ccc(S(=O)(=O)Nc2cnccn2)cc1 [CBK270313] | 121 | 
19 | Cc1ccccc1Nc1ccccc1C(=O)O [CBK012249] | 113 | 
20 | COc1cc(CNC2CCCc3c2cnn3C)cc(OC)c1 (centres unmarked) [CBK304306C] | 82.4 | 
21 | O=C(c1cccnc1)C1CCN(C(=O)CC2CC3CCC2C3)CC1 (centres unmarked) [CBK283530] | 95.1 | 
22 | COc1ccc(C(=O)O)cc1NC(=S)NC(=O)c1ccc(-c2ccccc2)cc1 [CBK265064] | 99.5 | 
23 | COc1cc(C2CC(=O)Nc3nc(N)[nH]c(=O)c32)ccc1OCc1ccc(F)cc1 (centres unmarked) [CBK293980] | 84.8 | 

Row | SMILES | viability at 28.5 h, 10 µM [%] | viability at 28.5 h, 10 µM (bulk resorufin, single well) [%]
24 | Cc1ccc(O)c(CN[C@@H]2CCC(=O)N[C@H]2c2cc(F)cc(F)c2)c1 [CBK283132] | 94 | 
25 | Cc1c(C(=O)N2CCC(C(=O)c3cccnc3)CC2)oc2ccccc12 [CBK283954] | 88.9 | 
26 | O=C(c1cccc2[nH]ccc12)N1CCN(CCc2ccccc2)CC1 [CBK200203] | 104 | 
27 | C=CCN1C(=O)C2(Nc3ccccc3C(=O)N2c2ccc(Cl)cc2)c2ccccc21 (centres unmarked) [CBK093474] | 106 | 
28 | COc1ccc([C@@]23CC[C@@H](NC(=O)Nc4ccc(Cl)cc4Cl)C[C@@H]2CN(C)C3)cc1OC [CBK085798T] | 88.5 | 
29 | c1ccc(CCN2CCN(Cc3ncc[nH]3)CC2)cc1 [CBK138328] | 120 | 
30 | CC(C)(C)NC(=O)c1ccc(-n2ccnc2)c(-n2cccc2)c1 [CBK284811] | 103 | 
31 | Cc1ccc(N2CC(c3nnc(N)o3)CC2=O)cc1 (centres unmarked) [CBK288061] | 93.8 | 
32 | NC(=O)COc1cccc(/C=C2/SC(Nc3cccc(C(=O)O)c3)=NC2=O)c1 [CBK265027] | 104 | 
33 | c1ccc2c(c1)CCN(Cc1nc3ccccc3[nH]1)C2 [CBK126396] | 92.2 | 
34 | CCSc1nnc2c(n1)OC(C1CC=C(C)CC1)Nc1ccccc1-2 (centres unmarked) [CBK262367] | 95.5 | 
35 | O=C(Cn1cc(C(=O)NCc2ccc(F)cc2)ccc1=O)NC1(c2ccccc2)CCCC1 [CBK286081] | 96.9 | 
36 | O=C1Nc2ccccc2Oc2ccc(S(=O)(=O)N3CCOCC3)cc21 [CBK269807] | 75.5 | 
37 | O=S(=O)(NCc1ccccn1)c1ccc(Br)cc1Br [CBK262291] | 93.2 | 
38 | O=C(O)/C(=N\O)c1ccc(CCc2ccccc2)s1 [CBK261213] | 90.8 | 
39 | CSc1ccc(-c2nc(NC(=O)C(C)C)cc3cccnc23)cc1 [CBK081262] | 100 | 
40 | COc1ccc(NC(=O)c2cc(C(C)C)n(-c3nc4ccccc4s3)n2)cc1 [CBK287667] | 100 | 
41 | O=C(Nc1ccc(F)cc1F)Nc1cc(Cl)sc1Cl [CBK019967] | 102 | 
42 | O=[N+]([O-])c1ccc(N2CCN(S(=O)(=O)c3ccc(Cl)cc3)CC2)cc1NCc1cccnc1 [CBK264749] | 123 | 
43 | Cc1cn(S(=O)(=O)c2ccc(Cl)cc2)cn1 [CBK026492] | 113 | 
44 | O=C(O)C1(NS(=O)(=O)c2ccc(F)c(Cl)c2)CCCCC1 [CBK267276] | 98.2 | 
45 | Cc1ccc(-c2ccccc2)n1-c1ccc(O)c(C(=O)O)c1 [CBK116375] | 103 | 
46 | CCOC(=O)c1cnn2c(O)cc(CN3CCCCC3)nc12 [CBK305585] | 101 | 

Row | SMILES | viability at 28.5 h, 10 µM [%] | viability at 28.5 h, 10 µM (bulk resorufin, single well) [%]
47 | Brc1cn2c(-c3ccccc3)cnc2c(N2CCCC2)n1 [CBK091488] | 106 | 
48 | Cc1c(N)c(=O)n2nc(C(F)(F)F)nc2n1C [CBK020172] | 90.4 | 
49 | Cc1c(Nc2ncnc3sc4c(c23)CCCC4)c(=O)n(-c2ccccc2)n1C [CBK093912] | 93.1 | 
50 | CN(Cc1nccs1)C(=O)c1cccc(OCC(=O)N2CCCCC2)c1 [CBK307478] | 108 | 
51 | COc1ccc2c(c1)CCN=C2C[C@H]1CN(C(=O)NC(C)C)CC[C@H]1CC(=O)O [CBK289156] | 90 | 
52 | O=c1n(CC2CCCCC2)c2ccccc2n1S(=O)(=O)c1cccc(Cl)c1 [CBK106521] | 91.4 | 
53 | Cc1nn(-c2ccccc2)c2nc(O)c(CNC(c3ccccc3)c3ccco3)cc12 (centres unmarked) [CBK286449] | 83.8 | 
54 | c1cnn(CC2CCCCN2c2ncnc3sccc23)c1 (centres unmarked) [CBK304969] | 92.1 | 
55 | O=C(Cn1c(-c2ccc(F)cc2)cc2cccnc21)N1CCCC1 [CBK285384] | 102 | 
56 | COc1ccc(OC)c(-c2cc(C(=O)O)c(C)o2)c1 [CBK049343] | 97.9 | 
57 | COc1cccc(CCN(Cc2ccc(S(=O)(=O)N3CCOC3=O)cc2)Cc2cccc(OCCO)c2)c1 [CBK014806] | 98.5 | 
58 | COc1cc(/C=C2\C(=O)NC(=O)N(c3cc(C)ccc3C)C2=O)ccc1O [CBK264161] |  | 91
59 | O=C(N/N=C/c1ccc(Cl)cc1Cl)c1nc(-c2ccccc2)cc(-c2ccccc2)n1 [CBK262814] | 90.1 | 
60 | O=[N+]([O-])c1ccc(N2CCNCC2)cc1NCCO [CBK262851] | 75.1 | 
61 | O=C(Cc1cccs1)N1CCC2(CC1)OCc1ccccc1O2 [CBK061086] |  | 86.8
62 | CC(C)(C)c1ccc(CNC(=O)C2CCCN2S(=O)(=O)c2ccc3ccccc3c2)cc1 (centres unmarked) [CBK265020] | 109 | 
63 | CC(Oc1cccc(Cl)c1)C(=O)NCc1ccc(S(N)(=O)=O)cc1 (centres unmarked) [CBK265477] | 97 | 
64 | COc1ccccc1Oc1ccc(S(=O)(=O)N2CCOCC2)cc1S(=O)(=O)N1CCOCC1 [CBK265176] | 97.2 | 
65 | CCn1cc(C(=O)NN)c(=O)c2cc(F)c(N3CCCCCC3)cc21 [CBK307145] | 100 | 
66 | O=C(Nc1cccc(Oc2ccccc2)c1)c1ccc2[nH]ccc2c1 [CBK161728] | 97.5 | 
67 | O=C(c1cc(F)cc(F)c1)N1CCC(c2cccnc2)CC1 [CBK283892] | 87.5 | 
68 | Cc1ccc(Oc2ccc(S(=O)(=O)N3CCOCC3)cc2C(=O)O)cc1 [CBK286748] | 90.4 | 
69 | CCn1c(CN2CCn3c(nnc3C3CC3)C2)nc2c(F)cccc21 [CBK306300] | 96.6 | 

Row | SMILES | viability at 28.5 h, 10 µM [%] | viability at 28.5 h, 10 µM (bulk resorufin, single well) [%]
70 | COCCN1CCC(CNC(=O)Nc2cc(C)ccc2F)C1 (centres unmarked) [CBK304631] | 117 | 
71 | O=c1c2ccccc2nc(SCc2cccc3nsnc23)n1-c1ccccc1 [CBK266076] | 82.1 | 
72 | Cc1ccc(C(C)(C)CC(C)NCc2cccc(C(F)(F)F)c2)o1 (centres unmarked) [CBK262872] | 95 | 
73 | Cc1cc(C(=O)Nc2ccccc2N2CCOCC2)c(C)o1 [CBK057243] | 111 | 
74 | CC(C)C(NC(=O)c1ccc(CS(C)(=O)=O)cc1)c1ccc(C(C)(C)C)cc1 (centres unmarked) [CBK296705] | 102 | 
75 | O=S(=O)(Oc1ccc2ccccc2c1)c1ccc2c(c1)Cc1cc(S(=O)(=O)Oc3ccc4ccccc4c3)ccc1-2 [CBK262385] | 105 | 
76 | COc1ccc(C2(C(=O)NCCc3c[nH]cn3)CC2)cc1 [CBK149834] | 97.8 | 
77 | CC(C)n1cnnc1CN1CCN(c2ccc(C#N)cc2)CC1 [CBK307714] | 106 | 
78 | Clc1cccc(-c2cccc(Nc3cccnc3)n2)c1Cl [CBK037800] | 102 | 
79 | COc1ccc(OCCCN2C(=O)C3(CC(=O)N(Cc4ccccc4)C3=O)c3cc(OC)ccc32)cc1 (centres unmarked) [CBK075523] | 106 | 
80 | COc1cc(CCN2CCN(C(C)C)CC2)cc(OC)c1OC [CBK028881C] | 89.8 | 
81 | O=C1NC(=O)N(c2ccc(O)cc2)C(=O)/C1=C/c1cc(Cl)c(OCc2ccccc2)c(Cl)c1 [CBK265385] |  | 78.1
82 | CCOc1ccc(-c2nnn(CC(N)=O)n2)cc1 [CBK068283] | 110 | 
83 | CCc1nnc(SCc2cccc(C(=O)O)c2)o1 [CBK286993] | 95.7 | 
84 | CC(C)NCc1c(O)c(Br)cc2oc3c(c12)CCCC3 [CBK160400] | 96.5 | 
85 | COCCN1CCN(c2cncc(-c3ccc(O)cc3)n2)CC1 [CBK126951T] | 93.6 | 
86 | COc1c(C)cc(-c2[nH]c(C)nc2C)cc1C [CBK306941] | 86.6 | 
87 | CC(=O)Nc1ccc(S(=O)(=O)Nc2nnc(CC(C)(C)C)s2)cc1 [CBK049910] | 87.7 | 
88 | COc1cccc(Oc2nccnc2-c2ccc3c(c2)OCO3)c1 [CBK106704] | 94.9 | 
89 | O=C(NCCCN1CCCC1=O)c1cnc(-c2ccc(Cl)cc2)c(-c2ccncc2)c1 [CBK037545] | 74.8 | 
